Data from patent publication US6582680B2, “Acid resistant film forming dental composition and method of use” (priority 1999, dated 2003).
Counter-ions that a name gives are not always drawn.

Tested on: dentin postoperative hypersensitivity of human teeth
Assay: Clinical evaluation of post-operative dentin hypersensitivity in amalgam restoration patients
Assay type: in vivo
Protocol: Prior to anesthesia for pre-treatment evaluation and during the first week of treatment, the patients completed a questionnaire on pain. The patients were also evaluated post-operatively at one, three and six weeks. […] Only patients who had elected amalgam restoration procedures at UAB were employed for this study. Each tooth received a pre anesthesia evaluation for dentin postoperative hypersensitive with a cold stimulus and air jet for thermal testing. For cold-ice testing, plastic needle covers were filled with water and frozen in a refrigerator freezer for uses as the standardized cold stimulus. For air stimulation, the standardized baseline air jet from a syringe was used to direct a blast of air at the offending tooth and defective restoration. A randomized number chart was employed to select teeth for either the Copalite® varnish controls or teeth to be treated with the product of the present invention, potassium oxalate dihydrate. Following pre operative data collection and anesthesia, each tooth then received a routine intracoronal Class-I or Class-II cavity preparations. […] Following cavity preparation, rinsing and gentle air drying, the entire preparation surface was treated with the Copalite® varnish without modification or removal of the smear layer. Each control cavity was treated with three layers of copal varnish and each layer gently air dispersed with a chip syringe before the following Copalite® coat was applied. […] The patient was also evaluated for postoperative hypersensitivity at one, three and six weeks post-operatively. […] Thermal tests for ice and an air jet were administered and data recorded as for all of the previous tests. For base line data, each patient was evaluated for pain or sensitivity to cold and air prior to their treatment in this study. […] All data was analyzed by one-way Analysis of Variance (ANOVA) at the 0.05 level depending on the cell sizes in our contingency table of treatments versus responses. […] Responses from each of the patients were recorded on separate sheets and then tabulated onto the master sheet according to the identified criteria. The raw data were recorded from the McGill Visual Analog Scale (MVAS) evaluation sheets. Data were recorded from all patients experiencing none, some or severe post-operative hypersensitivity based on the patient responses at the various intervals, preoperative at 0 days, and post treatment […]. […] The date for each of the McGill VA scales were tabulated and recorded on a separate sheet with the patient's name and clinical record number-as a 10 centimeter straight line with no identifying marks along its axis.

How did the “patients pain free following the first procedure” value (MVA survey, post-operative) turn out when O=C(O)C(=O)O [potassium oxalate dihydrate, oxalate acid potassium salt, dihydrate 99%] was run?
The value was 88.5%.

What about the “reduction in post-operative pain (collective MVA scale data)” value (McGill Visual Analog Scale, treated teeth) of the same compound?
Its value is “dramatic reduction”.

What about the “overall pain reduction for the cold discriminator measurement” value (cold stimulus, compared with Copalite) of the same compound?
Its value is “greater reduction”.

And the “reduction in sensitivity / reported pain to the various stimuli (especially cold), in response to direct questioning” value (patients, post-operatively after amalgam restoration)?
The value was 80.3%.
